Data taken from paper PMC3985129 (Journal of laboratory automation, 2013).
Where “and” joins values, the source holds several entries; their conditions need not be identical. Identical values can stand only once.

Key:
Cytotoxicity assay = conditions: human, MMTV-βLa HeLa cells, EC50 (95% confidence interval), Cytotoxicity assay (ATP content)
[1] = target: green coffee bean α-galactosidase A (GLA) (Coffea arabica, UniProt Q42656); assay: α-galactosidase; assay type: biochemical
[2] = HP D300 - with DMSO backfill, 384-well
[3] = HP D300 - without DMSO backfill, 384-well

Chain of green coffee bean α-galactosidase A (GLA) (Q42656 16-378): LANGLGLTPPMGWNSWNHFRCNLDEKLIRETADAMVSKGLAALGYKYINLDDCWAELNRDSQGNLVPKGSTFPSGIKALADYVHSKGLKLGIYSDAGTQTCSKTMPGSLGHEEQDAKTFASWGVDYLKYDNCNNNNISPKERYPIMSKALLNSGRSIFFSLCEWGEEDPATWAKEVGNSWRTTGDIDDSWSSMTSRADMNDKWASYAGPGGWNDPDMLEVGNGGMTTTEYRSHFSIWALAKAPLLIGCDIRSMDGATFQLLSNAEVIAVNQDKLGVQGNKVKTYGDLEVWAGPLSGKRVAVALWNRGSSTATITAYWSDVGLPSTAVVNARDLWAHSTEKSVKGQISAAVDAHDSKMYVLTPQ

| SMILES | EC50 at 72 hr (Cytotoxicity assay; [2]) | EC50 at 72 hr (Cytotoxicity assay; [3]) | EC50 at 72 hr (Cytotoxicity assay; Pin tool – 1536-well) | EC50 ([1]; EC50 (95% confidence interval), α-galactosidase enzyme assay) | fold more potent in our assay than previously reported ([1]; versus previously published value, ref [4]) |
| --- | --- | --- | --- | --- | --- |
| COc1cccc2c1C(=O)c1c(O)c3c(c(O)c1C2=O)C[C@@](O)(C(C)=O)C[C@@H]3O[C@H]1C[C@H](N)[C@H](O)[C@H](C)O1 [Daunorubicin] | 0.189 µM | 0.252 µM | 0.38 µM |  |  |
| Cc1c(OCC(F)(F)F)ccnc1C[S+]([O-])c1nc2ccccc2[nH]1 (centres unmarked) [Lansoprazole, lansoprazole] |  |  |  | 12 µM and 11.5 µM and 8.95 µM |  |
| CC(=O)[O][Hg][c]1ccccc1 [PMA, phenylmercuric acetate] |  |  |  |  | > 50 fold |
| CC/C(=C(\c1ccccc1)c1ccc(OCCN(C)C)cc1)c1ccccc1 [Tamoxifen, tamoxifen] | 8.77 µM | 9 µM | 32.1 µM |  |  |
